According to patent US20230144436A1, “MUSCLE TARGETING COMPLEXES AND USES THEREOF FOR TREATING MYOTONIC DYSTROPHY” (Dyne Therapeutics, Inc., priority 2020, published 2023):

These substances were tested on DMPK (assay: DMPK knockdown by transfected antisense oligonucleotides in DM1 C15 myotubes at 0.5 nM and 50 nM). Settings: 0.5 nM oligonucleotide, 72 hours, qPCR, relative to vehicle control.
Assay type: cell-based
Description: Two hundred and thirty-six oligonucleotides for targeting DMPK were generated using in silico analysis. Each individual oligonucleotide was evaluated for their ability to target DMPK in cellulo at two doses—0.5 nM (low dose) and 50 nM (high dose).
Briefly, DM1 C15 immortalized myoblasts were cultured in T-75 flasks until near confluency (˜80% confluent). Myoblasts were then disrupted with trypsin and seeded into 96-well microplates at a density of 50,000 cells/well. Cells were allowed to recover overnight before the growth media was washed out and replaced with a no-serum media to induce differentiation into myotubes. Differentiation proceeded for seven days prior to treatment with DMPK-targeting oligonucleotides.
On day seven following induction of differentiation, DM1 C15 myotubes were transfected with an individual oligonucleotide using 0.3 μL of Lipofectamine MessengerMax per well. All oligonucleotides were tested at both 0.5 nM and 50 nM final concentrations in biological triplicates. After treatment with oligonucleotides, cells were incubated for 72 hours prior to being harvested for total RNA. cDNA was synthesized from the total RNA extracts and qPCR was performed to determine expression levels of DMPK in technical quadruplicate. All qPCR data were analyzed using a traditional […] method and were normalized to a plate-based negative control that comprised cells treated with vehicle control (0.3 μL/well Lipofectamine MessengerMax without any oligonucleotide). Results from these experiments are shown in Table 10. ‘Normalized DMPK Remaining’ for each antisense oligonucleotide in Table 10 refers to the expression level of DMPK in cell treated with said antisense oligonucleotide relative to the negative control that comprised cells treated with vehicle control (wherein the expression level of the negative control has been normalized to equal 1.00)

Substance	Percent DMPK Reduction
262 (UGUCGGGUUUGAUGUCCCUG; chemistry not given here) [compound 262]	30.09%
263 (GGAUGGCCUCCAUCUCCCGG; chemistry not given here) [compound 263]	24.93%
264 (AGGAUGUUGUCGGGUUUGAU; chemistry not given here) [compound 264]	24.19%
265 (GUCGGGUUUGAUGUCCCUGU; chemistry not given here) [compound 265]	28.89%
266 (AAUACUCCAUGACCAGGUAC; chemistry not given here) [compound 266]	28.86%
267 (CUUGUUCAUGAUCUUCAUGG; chemistry not given here) [compound 267]	16.06%
268 (UCAGUGCAUCCAAAACGUGG; chemistry not given here) [compound 268]	15.76%
269 (CUGUCCCGGAGACCAUCCCA; chemistry not given here) [compound 269]	35.85%
271 (CCCACGUAAUACUCCAUGAC; chemistry not given here) [compound 271]	28.21%
273 (CUGUGCACGUAGCCAAGCCG; chemistry not given here) [compound 273]	25.67%
274 (UGCCCAUCCACGUCAGGGCC; chemistry not given here) [compound 274]	13.63%
275 (AGCGCCUCCGAUAGGCCAGG; chemistry not given here) [compound 275]	21.19%
276 (UGUGCACGUAGCCAAGCCGG; chemistry not given here) [compound 276]	24.74%
277 (GACCAGGUACAGGUAGUUCU; chemistry not given here) [compound 277]	42.85%
279 (CAUCUCGGCCGGAAUCCGCU; chemistry not given here) [compound 279]	20.21%

Same assay, conditions: 0.5 nM oligonucleotide, 72 hours, qPCR, relative to vehicle control = 1.00

Substance	Normalized DMPK Remaining
262 (UGUCGGGUUUGAUGUCCCUG; chemistry not given here) [compound 262]	0.70
263 (GGAUGGCCUCCAUCUCCCGG; chemistry not given here) [compound 263]	0.75
264 (AGGAUGUUGUCGGGUUUGAU; chemistry not given here) [compound 264]	0.76
265 (GUCGGGUUUGAUGUCCCUGU; chemistry not given here) [compound 265]	0.71
266 (AAUACUCCAUGACCAGGUAC; chemistry not given here) [compound 266]	0.71
267 (CUUGUUCAUGAUCUUCAUGG; chemistry not given here) [compound 267]	0.84
268 (UCAGUGCAUCCAAAACGUGG; chemistry not given here) [compound 268]	0.84
269 (CUGUCCCGGAGACCAUCCCA; chemistry not given here) [compound 269]	0.64
271 (CCCACGUAAUACUCCAUGAC; chemistry not given here) [compound 271]	0.72
273 (CUGUGCACGUAGCCAAGCCG; chemistry not given here) [compound 273]	0.74
274 (UGCCCAUCCACGUCAGGGCC; chemistry not given here) [compound 274]	0.86
275 (AGCGCCUCCGAUAGGCCAGG; chemistry not given here) [compound 275]	0.79
276 (UGUGCACGUAGCCAAGCCGG; chemistry not given here) [compound 276]	0.75
277 (GACCAGGUACAGGUAGUUCU; chemistry not given here) [compound 277]	0.57
279 (CAUCUCGGCCGGAAUCCGCU; chemistry not given here) [compound 279]	0.80

Same assay, conditions: 50 nM oligonucleotide, 72 hours, qPCR, relative to vehicle control

Substance	Percent DMPK Reduction
262 (UGUCGGGUUUGAUGUCCCUG; chemistry not given here) [compound 262]	68.14%
263 (GGAUGGCCUCCAUCUCCCGG; chemistry not given here) [compound 263]	60.77%
264 (AGGAUGUUGUCGGGUUUGAU; chemistry not given here) [compound 264]	39.48%
265 (GUCGGGUUUGAUGUCCCUGU; chemistry not given here) [compound 265]	64.15%
266 (AAUACUCCAUGACCAGGUAC; chemistry not given here) [compound 266]	52.07%
267 (CUUGUUCAUGAUCUUCAUGG; chemistry not given here) [compound 267]	49.47%
268 (UCAGUGCAUCCAAAACGUGG; chemistry not given here) [compound 268]	42.06%
269 (CUGUCCCGGAGACCAUCCCA; chemistry not given here) [compound 269]	50.78%
271 (CCCACGUAAUACUCCAUGAC; chemistry not given here) [compound 271]	45.94%
273 (CUGUGCACGUAGCCAAGCCG; chemistry not given here) [compound 273]	70.10%
274 (UGCCCAUCCACGUCAGGGCC; chemistry not given here) [compound 274]	33.09%
275 (AGCGCCUCCGAUAGGCCAGG; chemistry not given here) [compound 275]	61.91%
276 (UGUGCACGUAGCCAAGCCGG; chemistry not given here) [compound 276]	75.09%
277 (GACCAGGUACAGGUAGUUCU; chemistry not given here) [compound 277]	70.95%
279 (CAUCUCGGCCGGAAUCCGCU; chemistry not given here) [compound 279]	59.40%

Same assay, conditions: 50 nM oligonucleotide, 72 hours, qPCR, relative to vehicle control = 1.00

Substance	Normalized DMPK Remaining
262 (UGUCGGGUUUGAUGUCCCUG; chemistry not given here) [compound 262]	0.32
263 (GGAUGGCCUCCAUCUCCCGG; chemistry not given here) [compound 263]	0.39
264 (AGGAUGUUGUCGGGUUUGAU; chemistry not given here) [compound 264]	0.61
265 (GUCGGGUUUGAUGUCCCUGU; chemistry not given here) [compound 265]	0.36
266 (AAUACUCCAUGACCAGGUAC; chemistry not given here) [compound 266]	0.48
267 (CUUGUUCAUGAUCUUCAUGG; chemistry not given here) [compound 267]	0.51
268 (UCAGUGCAUCCAAAACGUGG; chemistry not given here) [compound 268]	0.58
269 (CUGUCCCGGAGACCAUCCCA; chemistry not given here) [compound 269]	0.49
271 (CCCACGUAAUACUCCAUGAC; chemistry not given here) [compound 271]	0.54
273 (CUGUGCACGUAGCCAAGCCG; chemistry not given here) [compound 273]	0.30
274 (UGCCCAUCCACGUCAGGGCC; chemistry not given here) [compound 274]	0.67
275 (AGCGCCUCCGAUAGGCCAGG; chemistry not given here) [compound 275]	0.38
276 (UGUGCACGUAGCCAAGCCGG; chemistry not given here) [compound 276]	0.25
277 (GACCAGGUACAGGUAGUUCU; chemistry not given here) [compound 277]	0.29
279 (CAUCUCGGCCGGAAUCCGCU; chemistry not given here) [compound 279]	0.41
